Source: US12011444B2, “N-substituted indole derivatives as PGE2 receptor modulators” (Idorsia Pharmaceuticals Ltd, priority 2015, dated 2024)

Columns and labels:
EP4 = EP4 (Homo sapiens (Human), UniProt P35408); assay: hEP4 cAMP assay (BT549 breast cancer cells, HTRF cAMP); type: cell-based
Experimental: Plate is pre-incubated 45 minutes at room temperature. Subsequently, 2.5 microliters of PGE2 (final conc. 6 nM) are transferred into the assay plate. Plate is incubated 30 minutes at room temperature.

EP2 = EP2 (Homo sapiens (Human), UniProt P43116);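 also: antagonism of PGE2-stimulated cAMP accumulation in SF295 human glioblastoma cells with endogenous EP2, cAMP read by HTRF, expressed relative to DMSO control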
[1] = antagonistic activity, mean values where measured multiple times

EP4, sequence (P35408 whole entry): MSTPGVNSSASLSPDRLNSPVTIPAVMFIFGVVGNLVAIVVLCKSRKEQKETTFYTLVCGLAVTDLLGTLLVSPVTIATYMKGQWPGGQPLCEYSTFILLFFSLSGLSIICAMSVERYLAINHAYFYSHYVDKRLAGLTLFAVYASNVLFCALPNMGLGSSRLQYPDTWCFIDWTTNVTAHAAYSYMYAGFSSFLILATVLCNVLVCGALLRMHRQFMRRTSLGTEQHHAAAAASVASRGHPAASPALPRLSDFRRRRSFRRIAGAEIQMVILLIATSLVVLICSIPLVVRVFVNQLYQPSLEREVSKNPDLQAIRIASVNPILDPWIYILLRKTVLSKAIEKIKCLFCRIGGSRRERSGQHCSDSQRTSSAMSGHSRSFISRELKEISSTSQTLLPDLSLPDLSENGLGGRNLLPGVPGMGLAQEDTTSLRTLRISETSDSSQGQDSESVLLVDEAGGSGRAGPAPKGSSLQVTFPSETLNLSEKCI
EP2, sequence (P43116 whole entry): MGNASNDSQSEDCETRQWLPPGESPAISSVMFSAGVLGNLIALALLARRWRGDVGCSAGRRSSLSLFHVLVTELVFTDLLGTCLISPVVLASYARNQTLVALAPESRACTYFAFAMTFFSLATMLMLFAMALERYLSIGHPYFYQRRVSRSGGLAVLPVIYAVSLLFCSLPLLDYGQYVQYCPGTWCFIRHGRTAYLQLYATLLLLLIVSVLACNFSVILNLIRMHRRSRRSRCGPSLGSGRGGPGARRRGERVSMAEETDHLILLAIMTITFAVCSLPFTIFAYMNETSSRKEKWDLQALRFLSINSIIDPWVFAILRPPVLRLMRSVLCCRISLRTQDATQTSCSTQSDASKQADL

SMILES | IC50 (EP4; [1]) [nM] | IC50 (EP2) [nM] | IC50 (EP4; (*): measured using the cAMP assay) [nM]
Cc1nc(NCCn2c(C)cc3c(C)cc(F)cc32)cc(-c2cc(C(F)(F)F)c(C(=O)O)s2)n1 [compound 423] | 35 | 44 | 
Cc1cc(F)cc2c1cc(C)n2CCNc1cc(-c2ccc(C(=O)O)c(CC(C)C)c2)ncn1 [compound 422] | 148 | 34 | 
CCOc1cc(-c2cc(NCCn3c(C#N)cc4c(OC)ccc(F)c43)ncn2)sc1C(=O)NS(=O)(=O)C1CC1 [Example 816, Cyclopropanesuifonic acid (5-{6-[2-(2-cyano-7-fluoro-4-methoxy-indol-1-yl)-ethylamino]-pyrimidin-4-yl}-3-ethoxy-thiophene-2-carbonyl)-amide] |  | 24 | 15
COc1cc(F)cc2c1cc(C)n2CCNc1cc(-c2ccc(-c3nc(C)cs3)cc2)ncn1 [Example 758, [2-(6-Fluoro-4-methoxy-2-methyl-indol-1-yl)-ethyl]-{6-[4-(4-methyl-thiazol-2-yl)-phenyl]-pyrimidin-4-yl}-amine] | 113 | 32 | 
COc1cncc(-c2ccc(-c3cc(NCCn4c(C)cc5c(OC)cc(F)cc54)ncn3)cc2)n1 [Example 761, [2-(6-Fluoro-4-methoxy-2-methyl-indol-1-yl)-ethyl]-{6-[4-(6-methoxy-pyrazin-2-yl)-phenyl]-pyrimidin-4-yl}-amine] | 161 | 40 | 
COc1cc(F)cc2c1cc(C)n2CCNc1cc(-c2cc(C(F)(F)F)c(C(=O)O)s2)ncn1 [compound 447] | 27 | 28 | 
COc1ccc(F)c2c1cc(C)n2CCNc1cc(-c2cc(C(F)(F)F)c(C(=O)O)s2)ncn1 [compound 446] | 8 | 16 | 
CCOc1cc(-c2cc(NCCn3c(C)cc4c(C)cc(F)cc43)ncn2)cc(Cl)c1C(=O)O [compound 432] | 117 | 21 | 

The next lines start with the values.

IC50 (EP4; [1]) [nM] | IC50 (EP2) [nM] | IC50 (EP4; (*): measured using the cAMP assay) [nM] | SMILES
655 | 183 |  | Cc1ccc(F)c2c1cc(C)n2CCNc1cc(-c2ccc3c(c2)OCCO3)ncn1 [compound 740]
65 | 56 |  | CCNC(=O)Nc1ccc(-c2cc(NCCn3c(C)cc4c(OC)ccc(Cl)c43)ncn2)cc1OC [compound 554]
95 | 20 |  | COc1cc(Cl)cc2c1cc(C)n2CCNc1cc(-c2ccc(-c3noc(=O)[nH]3)cc2)ncn1 [compound 679, 3-(4-{6-[2-(6-Chloro-4-methoxy-2-methyl-indol-1-yl)-ethylamino]-pyrimidin-4-yl}-phenyl)-4H-[1,2,4]oxadiazol-5-one]
40 | 11 |  | CCCc1cc(-c2cc(NCCn3c(C)cc4c(OC)cc(Cl)cc43)ncn2)cc(Cl)c1C(=O)O [compound 518]
994 | 387 |  | Cc1ccc(F)c2c1cc(C)n2CCNc1cc(-c2ccc3c(c2)CN(CC(C)C)C3=O)ncn1 [compound 467]
952 | 60 |  | CCOc1cc(-c2cc(NCCn3c(C)cc4c(OC)ccc(Cl)c43)ncn2)cc(CC)c1C(=O)O [compound 617]
146 | 4 |  | CCNc1cc(-c2cc(NCCn3c(C)cc4c5c(cc(Cl)c43)OCO5)ncn2)ccc1C(=O)O [compound 460, 4-{6-[2-(5-Chloro-7-methyl-[1,3]dioxolo[4,5-e]indol-6-yl)-ethylamino]-pyrimidin-4-yl}-2-ethylamino-benzoic acid]
52 | 22 |  | Cc1nc(-c2ccc(-c3cc(NCCn4c(C)cc5c(C)cc(F)c(F)c54)ncn3)cc2)c[nH]1 [compound 575]
81 | 22 |  | COc1ccc(F)c2c1cc(C)n2CCNc1cc(-c2ccc(C(=O)O)c(CC(C)C)c2)ncn1 [compound 537]
341 | 41 |  | Cc1cc(F)cc2c1cc(C)n2CCNc1cc(-c2ccc3ncccc3c2)ncn1 [compound 732]
186 | 8 |  | COc1ccc(F)c2c1cc(C)n2CCNc1cc(-c2ccc(C(=O)O)c(OC(F)(F)F)c2)ncn1 [compound 606]
778 | 91 |  | COc1cc(F)cc2c1cc(C)n2CCNc1cc(-c2ccc3oc(C)nc3c2)ncn1 [compound 687]
